Measurements from the supplement of paper PMC13380429.

Tests used:
Conditions in all cases: 72 h
Vero E6 [1] = assay: cell viability relative to DMSO; higher = less toxic
Calu-3 [2] = assay: as above
HepG2 [3] = assay: as above
Caco-2 [4] = assay: as above
U2OS [5] = assay: as above
Vero E6 [6] = assay: drug sensitivity score (DSS) for viability; higher = more toxic; extreme values may be limits of the assay
Calu-3 [7] = assay: as above
HepG2 [8] = assay: as above
Caco-2 [9] = assay: as above
U2OS [10] = assay: as above
Vero E6 [11] = assay: relative viability EC50 (midpoint between 100% and the lowest measured viability); higher = less toxic
Calu-3 [12] = assay: as above
Caco-2 [13] = assay: as above
U2OS [14] = assay: as above

| Compound | cell viability (Vero E6 [1]; 1 nM) [%] | cell viability (Vero E6 [1]; 10 nM) [%] | cell viability (Vero E6 [1]; 100 nM) [%] | cell viability (Vero E6 [1]; 1000 nM) [%] | cell viability (Vero E6 [1]; 10000 nM) [%] | cell viability (Calu-3 [2]; 1 nM) [%] | cell viability (Calu-3 [2]; 10 nM) [%] | cell viability (Calu-3 [2]; 100 nM) [%] | cell viability (Calu-3 [2]; 1000 nM) [%] | cell viability (Calu-3 [2]; 10000 nM) [%] | cell viability (HepG2 [3]; 1 nM) [%] | cell viability (HepG2 [3]; 10 nM) [%] | cell viability (HepG2 [3]; 100 nM) [%] | cell viability (HepG2 [3]; 1000 nM) [%] | cell viability (HepG2 [3]; 10000 nM) [%] | cell viability (Caco-2 [4]; 1 nM) [%] | cell viability (Caco-2 [4]; 10 nM) [%] | cell viability (Caco-2 [4]; 100 nM) [%] | cell viability (Caco-2 [4]; 1000 nM) [%] | cell viability (Caco-2 [4]; 10000 nM) [%] | cell viability (U2OS [5]; 1 nM) [%] | cell viability (U2OS [5]; 10 nM) [%] | cell viability (U2OS [5]; 100 nM) [%] | cell viability (U2OS [5]; 1000 nM) [%] | cell viability (U2OS [5]; 10000 nM) [%] | drug sensitivity score (Vero E6 [6]) | drug sensitivity score (Calu-3 [7]) | drug sensitivity score (HepG2 [8]) | drug sensitivity score (Caco-2 [9]) | drug sensitivity score (U2OS [10]) | relative viability EC50 (Vero E6 [11]) [µM] | relative viability EC50 (Calu-3 [12]) [µM] | relative viability EC50 (Caco-2 [13]) [µM] | relative viability EC50 (U2OS [14]) [µM] |
| --- | --- | --- | --- | --- | --- | --- | --- | --- | --- | --- | --- | --- | --- | --- | --- | --- | --- | --- | --- | --- | --- | --- | --- | --- | --- | --- | --- | --- | --- | --- | --- | --- | --- | --- |
| c1cc(OCCN2CCCCC2)cc(-c2n[nH]c3ccc(-c4nnc[nH]4)cc23)c1 [CC-401] | 101 | 98 | 101 | 103 | 95.2 | 104 | 89.2 | 96 | 95.2 | 122 | 94.5 | 96.7 | 88.4 | 90.7 | 61.5 | 101 | 95.7 | 95.5 | 97.3 | 106 | 101 | 96.4 | 100 | 94.1 | 93.4 | 0 | 0 | 2.9 | 0 | 0 | > 10 | > 10 | > 10 | > 10 |
| CC(C)[C@@H]1CC[C@@H](C)C[C@@H]1P(=O)(c1ccccc1)c1ccccc1 [DPO-1] | 112 | 105 | 110 | 96.6 | 105 | 95.9 | 98.4 | 96.7 | 93.7 | 94.1 |  |  |  |  |  | 100 | 102 | 98.7 | 96.6 | 78 | 98.5 | 100 | 97.3 | 102 | 93.7 | 0 | 0 |  | 1.2 | 0 | > 10 | > 10 | > 10 | > 10 |
| COc1oc(=O)c2cc(N)ccc2c1Cl [JLK-6] | 108 | 104 | 100 | 104 | 93.8 | 103 | 105 | 106 | 94.9 | 80.9 | 96.6 | 113 | 103 | 105 | 73.1 | 99.2 | 94.6 | 96.1 | 95.4 | 76.6 | 99.7 | 98.2 | 99.1 | 99.4 | 91.7 | 0 | 1.1 | 0.8 | 1.5 | 0 | > 10 | > 10 | > 10 | > 10 |
| Cn1cc(-c2cnc3ccc4ccc(CS(=O)(=O)NCc5ccccn5)cc4c(=O)c3c2)cn1 [MK-8033] | 104 | 98.8 | 104 | 99.4 | 97.7 | 99.8 | 87.8 | 105 | 94.5 | 99.9 | 113 | 93.3 | 110 | 95.3 | 53.8 | 96.4 | 95.6 | 91.8 | 97.9 | 75.1 | 97.6 | 98.7 | 98.7 | 101 | 91.7 | 0 | 0 | 3.2 | 1.2 | 0 | > 10 | > 10 | > 10 | > 10 |
| CCCCCCCCCCCCCCCC(=O)O[C@@H]1[C@@H](O)[C@@H](O)[C@@H]([C@H](NC(=O)[C@@H]2C[C@@H](CCC)CN2C)[C@H](C)Cl)O[C@@H]1SC [clindamycin-palmitate] | 95.5 | 96.6 | 93.5 | 97 | 103 | 99.9 | 102 | 103 | 96.7 | 104 |  |  |  |  |  | 95 | 94.7 | 90.2 | 101 | 95.4 | 94.2 | 99.7 | 97.7 | 101 | 106 | 0 | 0 |  | 0 | 0 | > 10 | > 10 | > 10 | > 10 |
| C[C@]12C[C@H](O)[C@H]3[C@@H](CCC4=CC(=O)CC[C@@]43C)[C@@H]1CC[C@@H]2C(=O)CO [corticosterone] | 96.1 | 91.6 | 101 | 90.6 | 87.8 | 101 | 101 | 96.4 | 97.2 | 93.7 |  |  |  |  |  | 92.8 | 114 | 114 | 101 | 91.5 | 94.9 | 100 | 92.3 | 96.1 | 97.9 | 0 | 0 |  | 0 | 0 | > 10 | > 10 | > 10 | > 10 |
